Test results as given in patent publication US10285959B2, “Combination therapies using HDAC inhibitors” (priority 2005, dated 2019).
pIC50: −log10 of the molar value.

What was measured:
[1] = tested on: HCT116 colon cancer xenograft; assay: HCT116 colon cancer subcutaneous xenograft model; format: in vivo, nu/nu mice
Experimental: The 5-FU dose was set at 15 mg/kg.
HCT116 colon cancer xenograph. Daily i.p. treatments with PXD101 (morning) and 5-FU (afternoon). Mean/SEM, n=10(9).

[2] = tested on: P388 i.p. mouse leukemia tumour; assay: P388 mouse leukemia model, survival;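 note: female B6D1F1 mice implanted i.p. with P388 leukemia cells, Kaplan-Meier survival analysis, ILS% equals treated minus vehicle control median survival, divided by control median, times 100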
Experimental: P388 mouse leukemia cells were injected intrapertoneally (IP) into B6D1F1 female mice. […] Kaplan-Meier survival distribution graphs are shown for each combination.
The percentage Increased Life Span (ILS%) was calculated as the median survival (treatment group) minus median survival (vehicle control) divided by median survival (vehicle control) multiplied with 100:

[3] = tested on: EGFR protein in A431 cells; assay: Western blot of EGFR protein levels; format: cell-based, human; conditions: 24 hours treatment
Source text: The blot was reprobed with an anti-actin antibody to control for lane loading.

[4] = tested on: diverse tumor cell lines; assay: Proliferation of tumor cell lines; format: cell-based
[5] = tested on: Calu-3; assay: Growth inhibition/proliferation, PXD101 with Tarceva (CellTiter-Glo); format: cell-based, human; conditions: wtEGFR
[6] = tested on: HCC-4006; assay: Growth inhibition/proliferation, PXD101 with Tarceva; format: cell-based; conditions: mutant EGFR
[7] = 5-FU(30) mg/kg/treat i.p. daily for 5 days starting day 3
[8] = PXD101(60) mg/kg/treat i.p. daily for 5 days starting day 3
[9] = PXD101(100) mg/kg/treat i.p. daily for 5 days starting day 3

O=c1[nH]cc(F)c(=O)[nH]1 [5-FU, 5-fluorouracil]
tumour growth inhibition ([1]; 5-FU 15 mg/kg): ineffective | ILS % (Increased Life Span) [2, 7]: 60.0% | Survival time, Max [2, 7]: 18 | Survival time, Median survival [2, 7]: 16 | Survival time, Min [2, 7]: 15 | Cumulative Survival ([2]; day 9, 5-FU (30)): 1 | Cumulative Survival ([2]; day 9, 5-FU (50)): 1.00 | Cumulative Survival ([2]; day 10, 5-FU (30)): 1 | Cumulative Survival ([2]; day 10, 5-FU (50)): 0.55 | Cumulative Survival ([2]; day 11, 5-FU (30)): 1 | Cumulative Survival ([2]; day 11, 5-FU (50)): 0.15 | Cumulative Survival ([2]; day 12, 5-FU (30)): 1 | Cumulative Survival ([2]; day 12, 5-FU (50)): 0.15 | Cumulative Survival ([2]; day 13, 5-FU (30)): 1 | Cumulative Survival ([2]; day 13, 5-FU (50)): 0.15 | Cumulative Survival ([2]; day 14, 5-FU (30)): 1 | Cumulative Survival ([2]; day 14, 5-FU (50)): 0.15 | Cumulative Survival ([2]; day 15, 5-FU (30)): 0.85 | Cumulative Survival ([2]; day 15, 5-FU (50)): 0.15 | Cumulative Survival ([2]; day 16, 5-FU (30)): 0.55 | Cumulative Survival ([2]; day 16, 5-FU (50)): 0.15 | Cumulative Survival ([2]; day 17, 5-FU (30)): 0.15 | Cumulative Survival ([2]; day 17, 5-FU (50)): 0.15 | Cumulative Survival ([2]; day 18, 5-FU (30)): 0 | Cumulative Survival ([2]; day 18, 5-FU (50)): 0.15 | Cumulative Survival ([2]; day 19, 5-FU (50)): 0.15 | Cumulative Survival ([2]; day 20, 5-FU (50)): 0.15 | Cumulative Survival ([2]; day 21, 5-FU (50)): 0.15 | Cumulative Survival ([2]; day 22, 5-FU (50)): 0.15 | Cumulative Survival ([2]; day 23, 5-FU (50)): 0.15 | Cumulative Survival ([2]; day 24, 5-FU (50)): 0

Nc1nc(F)nc2c1ncn2[C@@H]1O[C@H](CO)[C@@H](O)[C@@H]1O [Fludarabin, Fludarabine]
Cumulative Survival ([2]; day 8, Fludarabin (50)): 1.00 | Cumulative Survival ([2]; day 9, Fludarabin (50)): 0.85 | Cumulative Survival ([2]; day 10, Fludarabin (50)): 0.55 | Cumulative Survival ([2]; day 11, Fludarabin (50)): 0.40 | Cumulative Survival ([2]; day 12, Fludarabin (50)): 0.40 | Cumulative Survival ([2]; day 13, Fludarabin (50)): 0.40 | Cumulative Survival ([2]; day 14, Fludarabin (50)): 0.40 | Cumulative Survival ([2]; day 15, Fludarabin (50)): 0.30 | Cumulative Survival ([2]; day 16, Fludarabin (50)): 0.30 | Cumulative Survival ([2]; day 17, Fludarabin (50)): 0.15 | Cumulative Survival ([2]; day 18, Fludarabin (50)): 0.15 | Cumulative Survival ([2]; day 19, Fludarabin (50)): 0

O=C1[O][Pt]2([NH][C@@H]3CCCC[C@H]3[NH]2)[O]C1=O [Oxali, Oxaliplatin]
Cumulative Survival ([2]; day 9, Oxali (5)): 0.45 | Cumulative Survival ([2]; day 10, Oxali (5)): 0

O=C(/C=C/c1cccc(S(=O)(=O)Nc2ccccc2)c1)NO [PXD-101]
tumour growth inhibition ([1]; PXD-101 60 and 100 mg/kg q1d x5/week for 2 weeks): significant tumour growth inhibition | level of EGFR protein [3]: apparently decreases the level of EGFR protein | pIC50 [4]: 5.61 to 7.10 | ILS % (Increased Life Span) [2, 8]: 30.0% | Survival time, Max [2, 8]: 14 | Survival time, Median survival [2, 8]: 13 | Survival time, Min [2, 8]: 12 | ILS % (Increased Life Span) [2, 9]: 20.0% | Survival time, Max [2, 9]: 14 | Survival time, Median survival [2, 9]: 12 | Survival time, Min [2, 9]: 11 | Cumulative Survival ([2]; day 9, PXD101 (60)): 1 | Cumulative Survival ([2]; day 9, PXD101 (100)): 1 | Cumulative Survival ([2]; day 10, PXD101 (60)): 1 | Cumulative Survival ([2]; day 10, PXD101 (100)): 1 | Cumulative Survival ([2]; day 11, PXD101 (60)): 1 | Cumulative Survival ([2]; day 11, PXD101 (100)): 0.85 | Cumulative Survival ([2]; day 12, PXD101 (60)): 0.70 | Cumulative Survival ([2]; day 12, PXD101 (100)): 0.43 | Cumulative Survival ([2]; day 13, PXD101 (60)): 0.15 | Cumulative Survival ([2]; day 13, PXD101 (100)): 0.43 | Cumulative Survival ([2]; day 14, PXD101 (60)): 0 | Cumulative Survival ([2]; day 14, PXD101 (100)): 0.15 | Cumulative Survival ([2]; day 15, PXD101 (100)): 0

C#Cc1cccc(Nc2ncnc3cc(OCCOC)c(OCCOC)cc23)c1 [Tarceva ®]
responsiveness of cells to Tarceva [5]: Calu-3 (wtEGFR; moderately responsive to Tarceva ®) | responsiveness of cells to Tarceva [6]: HCC-4006 (mutant EGFR; strongly responsive to Tarceva ®)
